Reference: US20080267882A1, “Imaging compounds, methods of making imaging compounds, methods of imaging, therapeutic compounds, methods of making therapeutic compounds, and methods of therapy” (Stanford University, priority 2007, published 2008)
Where “and” joins values, the source holds several entries; their conditions need not be identical. Equal entries are not always repeated. Values belong to the compound of their own block, whether it stands above or below them.

What was measured:
[1] = molecular target: T1, integrin αvβ3 (Homo sapiens, UniProt P05106+P06756); assay: competitive cell binding assay using ^125I-echistatin on U87MG cells; conditions: Example 4; n=3; read-out: IC50 (inhibition of ^125I-echistatin binding to U87MG cells)
T1 construct: evaluated using U87MG cells (integrin αvβ3-positive); endogenous in cells; host or cells: U87MG human glioblastoma cells (ATCC)
Protocol: Experiments were performed on U87MG human glioblastoma cells with triplicate samples as previously reported.
In vitro integrin αvβ3-binding affinities and specificities of RGD4, PRGD4 and FPRGD4 were assessed via displacement cell binding assays using ^125I-echistatin as the integrin αvβ3-specific radioligand. Experiments were performed on U87MG human glioblastoma cells by the method previously described (J Nucl Med. 2005;46:1707-1718 J Nucl Med. 2006;47:1172-1180, which is incorporated herein by reference for the corresponding discussion). […] Experiments were performed with triplicate samples.
Experiments were performed with triplicate samples.
In vitro integrin-binding affinity and specificity of RGD multimers and DOTA-RGD multimers were assessed via competitive cell binding assays using ^125I-echistatin as the integrin αvβ3-specific radioligand (J Nucl Med. 2005;46:1707-1718, which is incorporated herein by reference for the corresponding discussion). […] Experiments were performed with triplicate samples.

[2] = test system: MDA-MB-435 tumor-bearing mice; assay: biodistribution of ^3H-PTX and ^3H-RGD2−PTX in MDA-MB-435 tumor-bearing mice; format: in vivo, mouse
Protocol: All animal experiments were performed in compliance with the guidelines for the care and use of research animals established by the Stanford University's Animal Studies Committee. Female athymic nude mice (nu/nu) were obtained from Harlan (Indianapolis, Ind.) at 6-8 weeks of age and were kept under sterile conditions. The MDA-MB-435 cells were harvested and suspended in sterile PBS at a concentration of 5×10^7 cells/mL. Viable cells (5×10^6) in PBS (100 μL) were injected orthotopically in the right mammary fat pad. […] Tumor growth was followed by caliper measurements of perpendicular measures of the tumor. The tumor volume was estimated by the formula: tumor volume=a×(b^2)/2, where a and b are the tumor length and width respectively in mm.
The animals were euthanized at 4, 24 and 48 h post injection and major organs and tissues were collected correspondingly. Approximately 100 mg of the tissue was added to glass scintillation vials containing 1 mL of tissue solubilizer SoluEne®-350 (Perkin-Elmer, Waltham, Mass.). These samples were digested at 55° C. for overnight followed by bleaching to obtain the decolorized samples. Chemiluminescence was reduced by the addition of glacial acetic acid. Hionic-Fluor liquid scintillation cocktail (Perkin-Elmer) was added to all samples, which were then counted with a Tri-Carb 2800TR liquid scintillation Analyzer (Perkin-Elmer).

[3] = in vivo; conditions: mouse, iv, 3.7 MBq, total radioactivity, U87MG tumor uptake
Protocol: PET scans and image analysis were performed using a microPET R4 rodent model scanner (Siemens Medical Solutions) as previously reported (J Nucl Med 2006;47:113-121 and J Nucl Med 2005;46:1707-1718, each of which is incorporated herein by reference for the corresponding discussion). Each mouse was tail-vein injected with about 3.7 MBq (100 μCi) of ^18F-FPRGD2 under isoflurane anesthesia. The 30-min dynamic scan (1×30 s, 4×1 min, 1×1.5 min, 4×2 min, 1×2.5 min, 4×3 min, total of 15 frames) was started 1 min after injection. Five min static PET images were also acquired at 1 h and 2 h post-injection (p.i.). The images were reconstructed by a 2-dimensional ordered-subsets expectation maximum (OSEM) algorithm and no correction was applied for attenuation or scatter.
PET scans and image analysis were performed using a microPET R4 rodent model scanner (Siemens Medical Solutions) as previously reported. For U87MG tumor model, mice (n=3) were tail-vein injected with about 3.7 MBq (100 μCi) of ^18F-FPRGD4 under isoflurane anesthesia and then subjected to a 30-min dynamic scan (1×30 s, 4×1 min, 1×1.5 min, 4×2 min, 1×2.5 min, 4×3 min, total of 15 frames) starting from 1 min p.i. Five min static PET images were also acquired at 1, 2, and 3 h p.i. The images were reconstructed by 2-dimensional ordered-subsets expectation maximum (OSEM) algorithm. No attenuation or scatter correction was applied. […] The 5-min static PET scans was then acquired at 30 min and 1 h p.i. Multiple time point static scans were also obtained for orthotopic MDA-MB-435, c-neu oncomouse, and subcutaneous DU145 tumor models after tail-vein injected with 3.7 MBq of ^18F-FPRGD4.
For each microPET scan, regions of interest (ROIs) were drawn over the tumor, normal tissue, and major organs by using vendor software (ASI Pro 5.2.4.0) on decay-corrected whole-body coronal images. The maximum radioactivity concentration (accumulation) within a tumor or an organ was obtained from mean pixel values within the multiple ROI volume, which were converted to counts/mL/min by using a conversion factor. Assuming a tissue density of 1 g/mL, the ROIs were converted to counts/g/min and then divided by the administered activity to obtain an imaging ROI-derived % ID/g. […]
PET scans and image analysis were performed using a microPET R4 rodent model scanner (Siemens Medical Solutions) as previously reported (J Nucl Med. 2005;46:1707-1718 and J Nucl Med. 2006;47:113-121, each of which is incorporated herein by reference for the corresponding discussion). About 9.3 MBq of ^64Cu-DOTA-RGD multimer was intravenously injected into each mouse under isoflurane anesthesia. Five minute static scans were acquired at 30 min, 1 h, 2 h, 6 h, and 20 h p.i. The images were reconstructed by a 2-dimensional ordered-subsets expectation maximum (OSEM) algorithm and no correction was applied for attenuation and scatter. For each microPET scan, regions of interest (ROIs) were drawn over the tumor, normal tissue, and major organs on decay-corrected whole-body coronal images. The radioactivity concentration (accumulation) within a tumor was obtained from the maximum value within the multiple ROIs and then converted to % ID/g.
PET scans and image analysis were performed using a microPET R4 rodent model scanner (Siemens Medical Solutions) as previously reported (J Nucl Med. 2006;47:113-21 and J Nucl Med. 2005;46:1707-18, which is incorporated herein by reference for the corresponding discussion). […] The 60-min dynamic scan (5×1 min, 10×3 min, 5×5 min, total of 20 frames) was started 1 min after injection. A 2 h time point static scan was also acquired after the 60 min dynamic scan. Five min static PET images were also acquired separately at 30 min, 1 h and 2 h time points post-injection (p.i.) for another set of tumor-bearing mice (n=3/tracer). The images were reconstructed by a 2-dimensional ordered-subsets expectation maximum (OSEM) algorithm and no correction was necessary for attenuation or scatter correction. […]

IC50 [1]: 11 nM
Structure (SMILES): N=C(N)NCCC[C@@H]1NC(=O)[C@H](CCCCNC(=O)CC[C@H](NC(=O)CC[C@H](NC(=O)CC[C@H](NC(=O)CN2CCN(CC(=O)O)CCN(CC(=O)O)CCN(CC(=O)O)CC2)C(=O)N[C@@H](CCC(=O)N[C@@H](CCC(=O)NCCCC[C@@H]2NC(=O)[C@@H](Cc3ccc(O)cc3)NC(=O)[C@H](CC(=O)O)NC(=O)CNC(=O)[C@H](CCCNC(=N)N)NC2=O)C(=O)NCCCC[C@@H]2NC(=O)[C@@H](Cc3ccc(O)cc3)NC(=O)[C@H](CC(=O)O)NC(=O)CNC(=O)[C@H](CCCNC(=N)N)NC2=O)C(=O)N[C@@H](CCC(=O)NCCCC[C@@H]2NC(=O)[C@@H](Cc3ccc(O)cc3)NC(=O)[C@H](CC(=O)O)NC(=O)CNC(=O)[C@H](CCCNC(=N)N)NC2=O)C(=O)NCCCC[C@@H]2NC(=O)[C@@H](Cc3ccc(O)cc3)NC(=O)[C@H](CC(=O)O)NC(=O)CNC(=O)[C@H](CCCNC(=N)N)NC2=O)C(=O)N[C@@H](CCC(=O)NCCCC[C@@H]2NC(=O)[C@@H](Cc3ccc(O)cc3)NC(=O)[C@H](CC(=O)O)NC(=O)CNC(=O)[C@H](CCCNC(=N)N)NC2=O)C(=O)NCCCC[C@@H]2NC(=O)[C@@H](Cc3ccc(O)cc3)NC(=O)[C@H](CC(=O)O)NC(=O)CNC(=O)[C@H](CCCNC(=N)N)NC2=O)C(=O)NCCCC[C@@H]2NC(=O)[C@@H](Cc3ccc(O)cc3)NC(=O)[C@H](CC(=O)O)NC(=O)CNC(=O)[C@H](CCCNC(=N)N)NC2=O)NC(=O)[C@@H](Cc2ccc(O)cc2)NC(=O)[C@H](CC(=O)O)NC(=O)CNC1=O [DOTA-RGD octamer]

IC50 [1]: 28 nM
Structure (SMILES): N=C(N)NCCC[C@@H]1NC(=O)[C@H](CCCCNC(=O)CC[C@H](NC(=O)CC[C@H](NC(=O)CN2CCN(CC(=O)O)CCN(CC(=O)O)CCN(CC(=O)O)CC2)C(=O)N[C@@H](CCC(=O)NCCCC[C@@H]2NC(=O)[C@@H](Cc3ccc(O)cc3)NC(=O)[C@H](CC(=O)O)NC(=O)CNC(=O)[C@H](CCCNC(=N)N)NC2=O)C(=O)NCCCC[C@@H]2NC(=O)[C@@H](Cc3ccc(O)cc3)NC(=O)[C@H](CC(=O)O)NC(=O)CNC(=O)[C@H](CCCNC(=N)N)NC2=O)C(=O)NCCCC[C@@H]2NC(=O)[C@@H](Cc3ccc(O)cc3)NC(=O)[C@H](CC(=O)O)NC(=O)CNC(=O)[C@H](CCCNC(=N)N)NC2=O)NC(=O)[C@@H](Cc2ccc(O)cc2)NC(=O)[C@H](CC(=O)O)NC(=O)CNC1=O [DOTA-RGD tetramer]

Structure (SMILES): CC(=O)O[C@H]1C(=O)[C@@]2(C)[C@H]([C@H](OC(=O)c3ccccc3)[C@]3(O)C[C@H](OC(=O)[C@H](O)[C@@H](NC(=O)c4ccccc4)c4ccccc4)C(C)=C1C3(C)C)[C@]1(OC(C)=O)CO[C@@H]1C[C@@H]2O [^3H-PTX, reference compound]
tissue concentration, Blood ([2]; 4 h): 67.1 ± 9.8 ng/g
tissue concentration, Intestine ([2]; 4 h): 274.1 ± 110.1 ng/g
tissue concentration, Kidney ([2]; 4 h): 339.6 ± 67.6 ng/g
tissue concentration, Liver ([2]; 4 h): 2389.3 ± 408.8 ng/g
tissue concentration, Lung ([2]; 4 h): 329.2 ± 18.2 ng/g
tissue concentration, MDA-MB-435 tumor ([2]; 4 h): 239.0 ± 56.2 ng/g
tissue concentration, Muscle ([2]; 4 h): 257.3 ± 32.2 ng/g
tissue concentration, Skin ([2]; 4 h): 135.1 ± 23.5 ng/g
tissue concentration, Spleen ([2]; 4 h): 365.5 ± 118.5 ng/g
tissue concentration, Stomach ([2]; 4 h): 180.7 ± 15.7 ng/g
tissue concentration, Blood ([2]; 24 h): 42.7 ± 14.7 ng/g
tissue concentration, Intestine ([2]; 24 h): 14.4 ± 2.5 ng/g
tissue concentration, Kidney ([2]; 24 h): 38.0 ± 13.3 ng/g
tissue concentration, Liver ([2]; 24 h): 123.4 ± 12.2 ng/g
tissue concentration, Lung ([2]; 24 h): 35.2 ± 5.4 ng/g
tissue concentration, MDA-MB-435 tumor ([2]; 24 h): 85.6 ± 15.2 ng/g
tissue concentration, Muscle ([2]; 24 h): 41.1 ± 17.2 ng/g
tissue concentration, Skin ([2]; 24 h): 24.6 ± 3.2 ng/g
tissue concentration, Spleen ([2]; 24 h): 51.6 ± 7.6 ng/g
tissue concentration, Stomach ([2]; 24 h): 24.4 ± 4.7 ng/g
decrease of concentration in the tumor ([2]; 24 h compared with 4 h): around 3 fold
drop of concentration in kidneys ([2]; 24 h compared with 4 h): 9 fold
drop of concentration in the liver ([2]; 24 h compared with 4 h): 20 fold
tissue concentration, Blood ([2]; 48 h): 35.0 ± 1.5 ng/g
tissue concentration, Intestine ([2]; 48 h): 12.8 ± 7.0 ng/g
tissue concentration, Kidney ([2]; 48 h): 35.7 ± 2.0 ng/g
tissue concentration, Liver ([2]; 48 h): 132.6 ± 31.9 ng/g
tissue concentration, Lung ([2]; 48 h): 47.9 ± 8.8 ng/g
tissue concentration, MDA-MB-435 tumor ([2]; 48 h): 45.8 ± 1.69 ng/g and 45.8 ± 1.7 ng/g
tissue concentration, Muscle ([2]; 48 h): 35.4 ± 10.7 ng/g
tissue concentration, Skin ([2]; 48 h): 25.4 ± 9.3 ng/g
tissue concentration, Spleen ([2]; 48 h): 36.4 ± 8.4 ng/g
tissue concentration, Stomach ([2]; 48 h): 17.2 ± 4.0 ng/g
decrease of concentration in the tumor ([2]; 48 h compared with 4 h): 5.2 fold

tissue uptake at 0.5 h ([3]; athymic nude): 3.4 ± 0.1 %ID/g
tissue uptake at 1 h ([3]; athymic nude): 2.8 ± 0.1 %ID/g
tissue uptake at 2 h ([3]; athymic nude): 2 ± 0.2 %ID/g
tissue uptake at 5 min ([3]; nude): 4.9 %ID/g
tissue uptake at 0.25 h ([3]; nude): 4.08 %ID/g
tissue uptake at 0.5 h ([3]; nude): 3.48 %ID/g
tissue uptake at 1 h ([3]; nude): 2.86 %ID/g
tissue uptake at 2 h ([3]; nude): 2.13 %ID/g
Structure (SMILES): N=C(N)NCCC[C@@H]1NC(=O)[C@H](CCCCNC(=O)CC[C@H](NC(=O)CC[C@H](NC(=S)Nc2ccc(C[C@H]3CN(CC(=O)O)CCN(CC(=O)O)CCN3CC(=O)O)cc2)C(=O)N[C@@H](CCC(=O)NCCCC[C@@H]2NC(=O)[C@@H](Cc3ccc(O)cc3)NC(=O)[C@H](CC(=O)O)NC(=O)CNC(=O)[C@H](CCCNC(=N)N)NC2=O)C(=O)NCCCC[C@@H]2NC(=O)[C@@H](Cc3ccc(O)cc3)NC(=O)[C@H](CC(=O)O)NC(=O)CNC(=O)[C@H](CCCNC(=N)N)NC2=O)C(=O)NCCCC[C@@H]2NC(=O)[C@@H](Cc3ccc(O)cc3)NC(=O)[C@H](CC(=O)O)NC(=O)CNC(=O)[C@H](CCCNC(=N)N)NC2=O)NC(=O)[C@@H](Cc2ccc(O)cc2)NC(=O)[C@H](CC(=O)O)NC(=O)CNC1=O [^68Ga-NOTA-RGD4, metal not drawn]
